According to the NIST ThermoML archive (doi:10.1016/j.tca.2019.02.007):
± gives the expanded uncertainty stated by the source.

What was measured:
[1] = for Normal melting temperature: DTA
[2] = Molar enthalpy of transition or fusion; conditions: DSC

| Normal melting temperature ([1]; Crystal 1) [°C] | Triple point temperature ([1]; Crystal 2, DSC) [K] | Molar enthalpy of transition or fusion ([2]; Crystal 1) [kcal/mol] | Molar enthalpy of transition or fusion ([2]; Crystal 2) [kcal/mol] | SMILES | Normal melting temperature ([1]; Crystal) [°C] | Molar enthalpy of transition or fusion ([2]; Crystal) [kcal/mol] |
| --- | --- | --- | --- | --- | --- | --- |
| – | – | – | – | O=C(O)c1ccccc1 [benzoic acid] | 122.5 ± 0.5 | 4.33 ± 0.131 |
| 235.2 ± 1.3 | 420.3 ± 1.1 | 5 ± 0.526 | 0.954 ± 0.0741 | Cn1c(=O)c2c(ncn2C)n(C)c1=O [caffeine] | – | – |
| – | – | – | – | CC(=O)Oc1ccccc1C(=O)O [2-acetoxybenzoic acid] | 139.2 ± 1.5 | 8.08 ± 0.574 |
